Marks after values point to notes of the source that are not given here.
Assays:
granuloma formation = assay: Granuloma formation in a mouse model of subchronic inflammation; format: in vivo; conditions: mice; 10 mg/kg body weight; previously showed, data not shown
[1] = Liver weight and gross morphology (hepatic steatosis) in C57BI mice after 5 days i.p. treatment; format: in vivo; conditions: male C57BI mice; Compound I 10 mg/kg i.p. daily for 5 days
Experimental: Administration of synthetic LXR agonists such as T0901317 induces a marked increment of liver lipogenesis that leads to hepatic steatosis and plasma hypertriglyceridemia.
Male C57BI mice received daily for 5 days intraperitoneal injections containing either 10 mg Compound I/kg, or 5 mg T0901317/kg, or vehicle [90% (v/v) DMSO in apyrogenic sterile water]. On the sixth day of the assay, the animals were fasted for 4 h before decapitation. Blood plasma was obtained for the determination of total cholesterol, HDL-cholesterol and triglyceride contents. The livers were resected, and their weights and colors used as gross markers of increased liver triglyceride contents.

[2] = system: imiquimod-induced skin lesions; assay: Imiquimod-induced psoriasis model in mice: clinical signs and dorsal skin histopathology; format: in vivo; parameters: key to Hyperkeratosis, protective effect / Epidermal serocellular crust, protective effect / Acanthosis, protective effect / Dermal inflammatory infiltrates, protective effect: the (+) sign represents the presence of a protective effect; a (−) sign represents the absence of protective effect; conditions: for Acanthosis (0-4), group mean score of dorsal skin / Basliar papillae (0-4), group mean score of dorsal skin / Dermal inflammatory infiltrates (0-4), group mean score of dorsal skin / Dilated tortuous capillaries (0-4), group mean score of dorsal skin / Epidermal micro-abscesses (0-4), group mean score of dorsal skin / Epidermal serocellular rust (0-4), group mean score of dorsal skin / Hyperkeratosis (0-4), group mean score of dorsal skin / Mean Global Score, dorsal skin / Parakeratosis (0-4), group mean score of dorsal skin: psoriatic mice; for Acanthosis (0-4), group mean score of dorsal skin / Basliar papillae (0-4), group mean score of dorsal skin / Dermal inflammatory infiltrates (0-4), group mean score of dorsal skin / Dilated tortuous capillaries (0-4), group mean score of dorsal skin / Epidermal micro-abscesses (0-4), group mean score of dorsal skin / Epidermal serocellular rust (0-4), group mean score of dorsal skin / Hyperkeratosis (0-4), group mean score of dorsal skin / Mean Global Score, dorsal skin / Parakeratosis (0-4), group mean score of dorsal skin / severity of microscopic alterations of back skin (histopathology): QD 9 days
From the text: To test whether Compound I might ameliorate the signs of psoriasis, we topically administered Compound I to imiquimod-induced skin lesions in mice. The imiquimod mouse model of psoriasis-like skin inflammation is characterized by lesions that show augmented epidermal cell proliferation, abnormal keratinocyte differentiation, neutrophil accumulation in epidermal microabcesses, and neoangiogenesis.
For this study, thirty two 8-week old female Balbc/J mice were housed […] in positively ventilated polysulfonate cages with HEPA filtered air at a density of 4 mice per cage. The animal room was lighted entirely with artificial fluorescent lighting, with a controlled 12 h light/dark cycle (6 am to 6 pm light). The normal temperature and relative humidity ranges in the animal rooms were 22±4° C. and 50±15%, respectively. The animal rooms were set to have a minimum of 15 air exchanges per hour. Filtered tap water, acidified to a pH of 2.5 to 3.0, and standard rodent chow were provided ad libitum. After 1 week of acclimation mice were randomized into 4 groups (n=8/each) as shown below (Table 1).
1. IMQ induction: On day 0 all grouped mice received a topical dose of 62.5 mg of IMQ cream (5%) on the shaved back for 6 consecutive days. (Day 0 to Day 5)
3. Mice were scored for clinical parameters of disease based on degree of erythema, scaling and thickening independently on a scale of 0-4. 0=none; 1=slight; 2=moderate; 3=moderate to severe: 4=severe. These observations were recorded on day 0, 2, 4, 6, and 8. On the same days, back skin thickness was measured with calipers.
5. Mice were sacrificed on day 10 by CO2 asphyxiation.
6. A part of the back skin was harvested and fixed for histology. Slides were processed, stained with H&E for histology assessment.
Dorsal skin sections were evaluated histopathologically for evidence of key features of psoriasis, such as parakeratosis, hyperkeratosis (thickening of the stratum corneum), acanthosis (diffuse thickening of the stratum spinosum of the skin), epidermal serocellular crusts, epidermal microabscesses, basilar papillae, dermal inflammatory infiltrates and dilated tortuous capillaries (Table 2. Histopathological scoring system and definition used in the Imiquimod psoriasis model).

LXR-alpha = LXR-alpha expression in HepG2 cells (real time PCR); format: cell-based, human; conditions: 10 uM, 6 h
Experimental: The cells were incubated for 6 h in the presence of either Compound I (10 uM), or Compound II (10 uM), or the commercial LXR agonist GW3965 (1 uM), or Vehicle [DMSO, 0.1% (v/v)]). To obtain RNA, at the end of the incubation the cells were collected by centrifugation at 1,000 rpm for 2 min, washed with phosphate buffered saline, and lysed in 300 ul TRIZOL (Invitrogen). RNA samples were suspended in ul of RNAse free water, and their concentration determined (NanoDrop spectrophotometer). The ratio of the absorbance at 260 and 280 nm was used to assess RNA purity of an RNA preparation, with a value of 1.8-2.0 indicating pure RNA. To obtain cDNA, 1 ug of total RNA was denatured by incubating for 5 min at 70° C., before the addition of a mixture containing 0.5 ug oligo-dT primers and 25 ng/ml of random primers (Invitrogen), 1.0 mM dNTPs (Invitrogen), and 200 U M-MLV reverse transcriptase (Promega); after this the mixture was retrotranscribed at 37° C. for 60 min, followed by an incubation at 95° C. for 5 min to inactivate the enzyme. For the real time PCR amplification (Stratagene Thermal Cycler), cDNA samples were diluted 1/5 to 1/10 depending on the target amplification product. Calibration curves were obtained by use of eight successive 1:2 sample dilutions. […]

[3] = 0.1% (w/v) Compound I vs 0.1% (w/v) Clobetasol as printed
[4] = topical 0.10%, summary of Table 3

CC[C@@H](C(C)C)[C@H](O)[C@@H](O)[C@@H](C)[C@H]1CC[C@H]2[C@@H]3CCC4=CC(=O)CC[C@]4(C)[C@H]3CC[C@]12C [Compound I, (22S,23S)-22,23-dihydroxystigmast-4-en-3-one]
granuloma formation (granuloma formation): reduces granuloma formation | liver (hepatic) steatosis [1]: no signs | epidermal sero-cellular crust reduced relative to Clobetasol-treated mice [2, 3]: 50% | hyperkeratosis reduced relative to Clobetasol-treated mice [2, 3]: 50% | global response score of dorsal skin, lower vs. vehicle-treated animals ([2]; Compound I 0.1% topical, 9 days): ~26% | back skin thickening (calipers) ([2]; after 9 days topical, Compound I 0.05% and 0.1% (w/v), clobetasol 0.05% cream): None of the assayed Compound I's doses prevented back skin thickening | erythema reduction relative to vehicle-treated mice ([2]; day 8, both Compound I doses 0.05% and 0.1% (w/v), topical): 50% | skin erythema (clinical score 0-4, in words) ([2]; day 8, topical QD 9 days, both Compound I doses 0.05% and 0.1% (w/v), clobetasol 0.05% cream): slight | scaling (clinical score 0-4, in words) ([2]; day 8, topical QD 9 days, both Compound I doses, clobetasol 0.05% cream): no improvement | Acanthosis (0-4), group mean score of dorsal skin ([2]; topical 0.05%): 2.4 | Basliar papillae (0-4), group mean score of dorsal skin ([2]; topical 0.05%): 0.0 | Dermal inflammatory infiltrates (0-4), group mean score of dorsal skin ([2]; topical 0.05%): 2.0 | Dilated tortuous capillaries (0-4), group mean score of dorsal skin ([2]; topical 0.05%): 0.0 | Epidermal micro-abscesses (0-4), group mean score of dorsal skin ([2]; topical 0.05%): 0.0 | Epidermal serocellular rust (0-4), group mean score of dorsal skin ([2]; topical 0.05%): 0.4 | Hyperkeratosis (0-4), group mean score of dorsal skin ([2]; topical 0.05%): 1.3* | Mean Global Score, dorsal skin ([2]; topical 0.05%): 6.4 | Parakeratosis (0-4), group mean score of dorsal skin ([2]; topical 0.05%): 0.4 | Acanthosis (0-4), group mean score of dorsal skin ([2]; topical 0.10%): 2.1 | Basliar papillae (0-4), group mean score of dorsal skin ([2]; topical 0.10%): 0.0 | Dermal inflammatory infiltrates (0-4), group mean score of dorsal skin ([2]; topical 0.10%): 1.5 | Dilated tortuous capillaries (0-4), group mean score of dorsal skin ([2]; topical 0.10%): 0.0 | Epidermal micro-abscesses (0-4), group mean score of dorsal skin ([2]; topical 0.10%): 0.0 | Epidermal serocellular rust (0-4), group mean score of dorsal skin ([2]; topical 0.10%): 0.3† | Hyperkeratosis (0-4), group mean score of dorsal skin ([2]; topical 0.10%): 0.9** | Mean Global Score, dorsal skin ([2]; topical 0.10%): 4.9 | Parakeratosis (0-4), group mean score of dorsal skin ([2]; topical 0.10%): 0.0 | severity of microscopic alterations of back skin (histopathology) ([2]; topical 0.05%): slightly lower severity | severity of microscopic alterations of back skin (histopathology) ([2]; topical 0.10% (w/v)): lower than in samples from vehicle-treated psoriatic controls and 0.05% (w/v) Compound I-treated mice | Acanthosis, protective effect [2, 4]: − | Dermal inflammatory infiltrates, protective effect [2, 4]: − | Epidermal serocellular crust, protective effect [2, 4]: + | Hyperkeratosis, protective effect [2, 4]: + | induction of LXR-alpha expression compared with DMSO treated HepG2 (LXR-alpha): 1.5 times

Source: patent US20190365784A1, “USE OF BRASSINOSTEROID ANALOGS FOR THE TREATMENT OF DERMAL DISORDERS BY SELECTIVELY MODULATING LIVER X RECEPTORS (LXR) AND DERMAL DISEASE TREATMENT BY BRASSINOSTEROID ANALOGS ACTING AS SELECTIVE LIVER X RECEPTOR (LXR) MODULATORS” (CONSEJO NACIONAL DE INVESTIGACIONES CIENTÍFICAS Y TÉCNICAS …, priority 2015, published 2019)
